This note sets out measurements from patent US9890185B2, “Urea derivatives useful as kinase inhibitors” (Respivert Limited, priority 2013, dated 2018).

In one experiment the test system is d-U937 cells. The experiment is described as follows: Accumulation of β catenin in d-U937 cells (assay m). The class given is cell-based, human. The note with it: percentage relative to Reference Compound at 1 μg/mL. How it is done:
U937 cells, a human monocytic cell line, are differentiated into macrophage-type cells by incubation with PMA; (100 ng/mL) for between 48 to 72 hr. The cells are then incubated with either final concentrations of test compound or vehicle for 18 hr. The induction of β-catenin by the test compounds is stopped by replacing the media with 4% formaldehyde solution. Endogenous peroxide activity is neutralised by incubating with quenching buffer (100 μL, 0.1% sodium azide, 1% H2O2 in PBS with 0.05% Tween-20) for 20 min. The cells are washed with washing buffer (200 μL; PBS containing 0.05% Tween-20) and incubated with blocking solution (200 μL; 5% milk in PBS) for 1 hr, re-washed with washing buffer (200 μL) and then incubated overnight with anti-β-catenin antibody solution (50 μL) in 1% BSA/PBS (BD, Oxford, UK).
After washing with washing buffer (3×200 μL; PBS containing 0.05% Tween-20), cells are incubated with an HRP-conjugated secondary antibody solution (100 μL) in 1% BSA/PBS (Dako, Cambridge, UK) and the resultant signal is determined colourimetrically (OD: 450 nm with a reference wavelength of 655 nm) using TMB substrate (50 μL; R&D Systems, Abingdon, UK). This reaction is stopped by addition of 1N H2SO4 solution (50 μL). Cells are then washed with washing buffer and 2% crystal violet solution (50 μL) is applied for 30 min. After washing with washing buffer (3×200 μL), 1% SDS (100 μL) is added to each well and the plates are shaken lightly for 1 hr prior to measuring the absorbance at 595 nm (Varioskan® Flash, Thermo-Fisher Scientific).
The measured OD450-655 readings are corrected for cell number by dividing the OD450-655 by the OD595 readings.

Experiment [1] deals with PBMCs. The experiment is described as follows: LPS-induced IL-8 release in PBMC cells (assay b). The class given is cell-based, human. As to conditions: Homo sapiens, PBMC; LPS-stimulated PBMCs; read-out: IC50 Values for Inhibition of Cytokine Release, PBMCs IL-8. A digest of the protocol: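 Human PBMCs from healthy donors, isolated by density gradient, were pretreated with compound for 2 h and then stimulated with 1 ng/mL LPS (E. coli 0111:B4) for 24 h at 37° C, 5% CO2. Supernatant IL-8 and TNFα were measured by sandwich ELISA, and IC50 was taken from the dose-response curve.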

A further experiment deals with Syk (Homo sapiens (Human), UniProt P43405). Description: Syk enzyme inhibition (FRET, Z-LYTE). The class given is biochemical. How it is done:
(§1) The enzyme inhibitory activities of compounds disclosed herein are determined by FRET using synthetic peptides labelled with both donor and acceptor fluorophores (Z-LYTE, Invitrogen Ltd., Paisley, UK).
(§2) The inhibitory activities of compounds of the invention against c-Src and Syk enzymes (Invitrogen), are evaluated in a similar fashion to that described hereinabove. The relevant enzyme (3000 ng/mL or 2000 ng/mL respectively, 2.5 μL) is incubated with the test compound (either 4 μg/mL, 0.4 μg/mL, 0.04 μg/mL, or 0.004 μg/mL, 2.5 μL each) for 2 hr at RT. The FRET peptides (8 μM, 2.5 μL), and appropriate ATP solutions (2.5 μL, 800 μM for c-Src, and 60 μM ATP for Syk) are then added to the enzymes/compound mixtures and incubated for 1 hr. Development reagent (protease, 5 μL) is added for 1 hr prior to detection in a fluorescence microplate reader (Varioskan® Flash, ThermoFisher Scientific).
(§3) In all cases, the site-specific protease cleaves non-phosphorylated peptide only and eliminates the FRET signal. Phosphorylation levels of each reaction are calculated using the ratio of coumarin emission (donor) over fluorescein emission (acceptor), for which high ratios indicate high phosphorylation and low ratios indicate low phosphorylation levels. The percentage inhibition of each reaction is calculated relative to non-inhibited control and the 50% inhibitory concentration (IC50 value) is then calculated from the concentration-response curve.

Another experiment has as its target c-Src (Homo sapiens (Human), UniProt P12931). The experiment is described as follows: c-Src enzyme inhibition (FRET, Z-LYTE). The class given is biochemical. The procedure:
as §1, §2, §3

The target of another experiment is GSK 3α (Homo sapiens (Human), UniProt P49840). The experiment is described as follows: GSK 3α enzyme inhibition (FRET, Z-LYTE, Method 2). The class given is biochemical. The note with it: read-out: IC50 Values for Enzyme Inhibition, GSK3α. A digest of the protocol:
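Phosphorylation of a dual-labelled synthetic peptide by human GSK3α is read as a coumarin/fluorescein ratio after protease development. Compound stocks run 4 to 0.004 μg/mL, and ATP stock is 40 μM.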

For experiment [2], the target named is p38 MAPKα isoform (MAPK14) (Homo sapiens (Human), UniProt Q16539). The experiment is described as follows: p38 MAPKα enzyme inhibition (FRET, Z-LYTE, Method 2). The class given is biochemical. The procedure: as §1
Chain of p38 MAPKα isoform (MAPK14) (Q16539 whole entry, canonical isoform): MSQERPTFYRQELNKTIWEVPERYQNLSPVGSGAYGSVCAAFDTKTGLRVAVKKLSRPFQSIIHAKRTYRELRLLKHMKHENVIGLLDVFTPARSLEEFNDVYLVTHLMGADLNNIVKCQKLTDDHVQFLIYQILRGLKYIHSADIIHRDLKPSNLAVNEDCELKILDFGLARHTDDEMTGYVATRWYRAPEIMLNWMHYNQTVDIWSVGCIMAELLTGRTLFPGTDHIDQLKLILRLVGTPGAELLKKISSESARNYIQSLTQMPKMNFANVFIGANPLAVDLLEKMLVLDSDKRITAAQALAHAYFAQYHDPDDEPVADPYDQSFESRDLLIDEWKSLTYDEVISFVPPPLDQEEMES
The following two assay variants can be used for determination of p38 MAPKα inhibition.
The inhibitory activities of test compounds against the p38 MAPKα isoform (MAPK14: Invitrogen), are evaluated indirectly by determining the level of activation/phosphorylation of the down-stream molecule, MAPKAP-K2. The p38 MAPKα protein (80 ng/mL, 2.5 μL) is mixed with the test compound (2.5 μL of either 4 μg/mL, 0.4 μg/mL, 0.04 μg/mL or 0.004 μg/mL) for 2 hr at RT. […] The mixture is incubated for 1 hr at RT. Development reagent (protease, 5 μL) is added for 1 hr prior to detection in a fluorescence microplate reader (Varioskan® Flash, ThermoFisher Scientific).
This method follows the same steps as Method 1 above, but utilises a higher concentration of the p38 MAPKα protein (2.5 μL of 200 ng/mL protein instead of 2.5 μL of 80 ng/mL protein) for mixing with the test compound.
as §3

Experiment [3] concerns PBMCs. The experiment is described as follows: Cell mitosis assay in PBMCs (assay g). The class given is cell-based. The note with it: Homo sapiens, PBMC, test compound 5 μg/mL. The procedure: Peripheral blood mononucleocytes (PBMCs) from healthy subjects are separated from whole blood (Quintiles, London, UK) using a density gradient (Histopaque®-1077, Sigma-Aldrich, Poole, UK). The PBMCs (3 million cells per sample) are subsequently treated with 2% PHA (phytohaemagglutinin, Sigma-Aldrich, Poole, UK) for 48 hr, followed by a 20 hr exposure to varying concentrations of test compounds. At 2 hr before collection, PBMCs are treated with demecolcine (0.1 μg/mL; Invitrogen, Paisley, UK) to arrest cells in metaphase. To observe mitotic cells, PBMCs are permeabilised and fixed by adding Intraprep (50 μL; Beckman Coulter, France), and stained with anti-phospho-histone 3 (0.26 ng/L; #9701; Cell Signalling, Danvers, Mass.) and propidium iodide (1 mg/mL; Sigma-Aldrich, Poole, UK) as previously described (Muehlbauer P. A. and Schuler M. J., Mutation Research, 2003, 537:117-130). Fluorescence is observed using an ATTUNE flow cytometer (Invitrogen, Paisley, UK), gating for lymphocytes. The percentage inhibition of mitosis is calculated for each treatment relative to vehicle (0.5% DMSO) treatment.

Chain of c-Src (P12931 whole entry, looked up): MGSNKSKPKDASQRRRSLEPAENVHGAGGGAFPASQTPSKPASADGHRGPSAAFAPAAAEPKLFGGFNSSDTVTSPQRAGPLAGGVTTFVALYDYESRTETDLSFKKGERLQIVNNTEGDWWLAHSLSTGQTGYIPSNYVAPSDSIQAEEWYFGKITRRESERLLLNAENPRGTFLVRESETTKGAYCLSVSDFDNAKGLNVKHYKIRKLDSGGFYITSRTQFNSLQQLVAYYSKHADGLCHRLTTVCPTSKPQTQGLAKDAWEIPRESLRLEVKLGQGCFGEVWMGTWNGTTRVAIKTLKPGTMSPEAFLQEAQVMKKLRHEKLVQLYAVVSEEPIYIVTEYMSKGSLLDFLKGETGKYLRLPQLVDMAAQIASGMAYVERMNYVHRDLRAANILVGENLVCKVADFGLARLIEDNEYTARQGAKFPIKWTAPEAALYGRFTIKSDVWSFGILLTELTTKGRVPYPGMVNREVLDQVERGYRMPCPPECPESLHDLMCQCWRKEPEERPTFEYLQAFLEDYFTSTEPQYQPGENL
Chain of GSK 3α (P49840 whole entry): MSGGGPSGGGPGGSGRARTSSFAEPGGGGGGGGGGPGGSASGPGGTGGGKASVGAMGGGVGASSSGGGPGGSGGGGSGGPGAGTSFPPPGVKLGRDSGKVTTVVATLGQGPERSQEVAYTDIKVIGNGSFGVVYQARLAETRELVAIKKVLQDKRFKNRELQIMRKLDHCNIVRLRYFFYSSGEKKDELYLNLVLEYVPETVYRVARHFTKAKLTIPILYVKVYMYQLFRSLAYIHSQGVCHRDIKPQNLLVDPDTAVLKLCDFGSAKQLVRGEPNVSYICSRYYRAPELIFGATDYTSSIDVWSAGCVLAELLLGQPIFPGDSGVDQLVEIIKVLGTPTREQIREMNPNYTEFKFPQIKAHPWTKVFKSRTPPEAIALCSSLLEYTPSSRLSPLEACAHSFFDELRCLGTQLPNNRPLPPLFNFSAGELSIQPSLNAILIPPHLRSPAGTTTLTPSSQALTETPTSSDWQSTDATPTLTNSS

A word on the IC50: it is the midpoint of a concentration-inhibition curve. As to `COc1cccc(Nc2cc(Oc3ccc(NC(=O)Nc4cc(C(C)(C)C)cc(P(C)(C)=O)c4OC)c4ccccc34)ccn2)c1` [15(af), 1-(5-(tert-butyl)-3-(dimethylphosphoryl)-2-methoxyphenyl)-3-(4-((2-((3-methoxy-phenyl)amino)pyridin-4-yl)oxy)naphthalen-1-yl)urea], the “% β-catenin induction” value in the experiment on d-U937 cells (test compound 1 μg/mL) is −2.0%; with d-U937 cells (test compound 5 μg/mL), 13.0%; with d-U937 cells (test compound 10 μg/mL) it was 32.0%. Further, the IC50 came to 2.7 nM in the experiment with PBMCs [1]; 278 nM on Syk; 77 nM at c-Src; 9.39 µM on GSK 3α; 226 nM in experiment [2].

As to `COc1c(NC(=O)Nc2ccc(Oc3ccnc(Nc4cc(C)c5[nH]ncc5c4)n3)c3ccccc23)cc(C(C)(C)C)cc1P(C)(C)=O` [15(j), 1-(5-(tert-butyl)-3-(dimethylphosphoryl)-2-methoxyphenyl)-3-(4-((2-((7-methyl-1H-indazol-5-yl)amino)pyrimidin-4-yl)oxy)naphthalen-1-yl)urea], the IC50 in the experiment with PBMCs [1] worked out at 3.2 nM; against Syk it was 16 nM; on c-Src, 19 nM; at GSK 3α, 0.855 µM; in experiment [2] it was 173 nM.

Usually inhibition stands for the change of the read-out against control, counted positive when it falls. Read a high inhibition as strong suppression. In the experiment with PBMCs [3], `COc1c(CC(N)=O)cc(C(C)(C)C)cc1NC(=O)Nc1ccc(Oc2ccnc(Nc3cc(OCCN4CCOCC4)cc(C(F)(F)F)c3)c2)c2ccccc12` [38(w), 2-(5-(tert-Butyl)-2-methoxy-3-(3-(4-((2-((3-(2-morpholinoethoxy)-5-(trifluoromethyl)-phenyl)amino)pyridin-4-yl)oxy)naphthalen-1-yl)ureido)phenyl)acetamide] yielded an inhibition at 5 µg/mL of 23.9%. Further, the concentration for half-maximal inhibition (IC50) with PBMCs [1] was 4 nM; at GSK 3α, more than 12.7 µM.

`COc1c(NC(=O)Nc2ccc(Oc3ccnc(Nc4cc(OCCN5CCOCC5)cc(C(F)(F)F)c4)c3)c3ccccc23)cc(C(C)(C)C)cc1[S+](C)[O-]` (stereo not drawn) [38(x), 1-(5-(tert-Butyl)-2-methoxy-3-(methylsulfinyl)phenyl)-3-(4-((2-((3-(2-morpholinoethoxy)-5-(trifluoromethyl)phenyl)amino)pyridin-4-yl)oxy)naphthalen-1-yl)urea] gave an inhibition at 5 µg/mL in the experiment on PBMCs [3] of 35%. Moreover, the figures for the IC50 in the experiment on PBMCs [1] and on GSK 3α were 4.1 nM and more than 12.6 µM, respectively.

The compound `COc1cc(Nc2cc(Oc3ccc(NC(=O)Nc4cc(C(C)(C)C)cc(P(C)(C)=O)c4OC)c4ccccc34)ccn2)cc(OC)c1` [Example 27, 1-(5-(tert-Butyl)-3-(dimethylphosphoryl)-2-methoxyphenyl)-3-(4-((2-((3,5-dimethoxyphenyl)-amino)pyridin-4-yl)oxy)naphthalen-1-yl)urea] registered an inhibition at 5 µg/mL in the experiment with PBMCs [3] of 52%. Further, the “% β-catenin induction” value in the experiment on d-U937 cells (test compound 1 μg/mL) stood at 5.7%; in the experiment with d-U937 cells (test compound 5 μg/mL), 13.0%; with d-U937 cells (test compound 10 μg/mL) it was 13.3%. Moreover, the IC50 with PBMCs [1] came out at 1 nM; against Syk, 137 nM; against c-Src, 44 nM; on GSK 3α it was 11.3 µM; in experiment [2], 230 nM.

On to `COCCOCCOCCOc1cc(Nc2cc(Oc3ccc(NC(=O)Nc4cc(C(C)(C)C)cc(CP(C)(C)=O)c4OC)c4ccccc34)ccn2)cc(OC)c1` [Example 29, 1-(5-(tert-Butyl)-3-((dimethylphosphoryl)methyl)-2-methoxyphenyl)-3-(4-((2-((3-methoxy-5-(2-(2-(2-methoxyethoxy)ethoxy)ethoxy)phenyl)amino)pyridin-4-yl)oxy)naphthalen-1-yl)urea], for which the inhibition at 5 µg/mL in the experiment with PBMCs [3] stood at 49.4%. The “% β-catenin induction” value in the experiment on d-U937 cells (test compound 1 μg/mL) stood at 6.5%; in the experiment on d-U937 cells (test compound 5 μg/mL), 9.0%; with d-U937 cells (test compound 10 μg/mL), 45.0%. The IC50 in the experiment with PBMCs [1] was 0.8 nM; against Syk, 123 nM; on c-Src it was 24 nM; at GSK 3α it was 5.47 µM; in experiment [2], 31 nM.

With `COc1c(NC(=O)Nc2ccc(Oc3ccnc(NCc4ccccn4)n3)c3ccccc23)cc(C(C)(C)C)cc1P(C)(C)=O` [Example 32, 1-(5-(tert-Butyl)-3-(dimethylphosphoryl)-2-methoxyphenyl)-3-(4-((2-((pyridin-2-ylmethyl)-amino)pyrimidin-4-yl)oxy)naphthalen-1-yl)urea], the half-inhibitory concentration (IC50) was found to be 1.8 nM in the experiment with PBMCs [1]; 1600 nM on Syk; 1110 nM against c-Src; 0.988 µM on GSK 3α; 6 nM in experiment [2].

`COc1cncc(Nc2cc(Oc3ccc(NC(=O)Nc4cc(C(C)(C)C)cc(P(C)(C)=O)c4OC)c4ccccc34)ccn2)c1` [Example 34, 1-(5-(tert-Butyl)-3-(dimethylphosphoryl)-2-methoxyphenyl)-3-(4-((2-((5-methoxypyridin-3-yl)amino)pyridin-4-yl)oxy)naphthalen-1-yl)urea] yielded an inhibition at 5 µg/mL in the experiment on PBMCs [3] of 81.1%. The “% β-catenin induction” value is 2.0% in the experiment on d-U937 cells (test compound 1 μg/mL), 28.5% in the experiment with d-U937 cells (test compound 5 μg/mL) and 23.0% in the experiment with d-U937 cells (test compound 10 μg/mL). Also, the IC50 came out at 1.2 nM in the experiment with PBMCs [1]; 228 nM at Syk; 43 nM at c-Src; 1.58 µM at GSK 3α; 56 nM in experiment [2].
